Target: T1, PSII core (Nicotiana tabacum, UniProt P06411+P06413+P69556+P69686)
T1 construct: gene psbA; native PSII core complex, sucrose gradient band of alpha-DDM-solubilised thylakoids; some Lhcb contamination
Test: HPLC and absorption-fit pigment analysis of isolated complex
Assay type: binding
Conditions: normalised to 37 Chls
Description: HPLC and absorption-fit pigment analysis of isolated complex on PSII core

Structure (SMILES)	Asta and its bypass products (complex from Asta plants (no beta-carotene), count includes by-products of astaxanthin synthesis) [molecules per complex]	β-caro (complex from wild-type plants) [molecules per complex]
CC1=C(/C=C/C(C)=C/C=C/C(C)=C/C=C/C=C(C)/C=C/C=C(C)/C=C/C2=C(C)C(=O)[C@@H](O)CC2(C)C)C(C)(C)C[C@H](O)C1=O [astaxanthin]	4.12 ± 0.01	–
CC1=C(/C=C/C(C)=C/C=C/C(C)=C/C=C/C=C(C)/C=C/C=C(C)/C=C/C2=C(C)CCCC2(C)C)C(C)(C)CCC1 [β-carotene]	–	3.93 ± 0.08

Source: paper PMC7609050, “Photosynthesis without β-carotene” (eLife, 2020)
